Measured values as given in patent publication US8946436B2, “Oxazolidinone compounds and their uses in preparation of antibiotics” (Sichuan Gooddoctor Pharmaceutical Group Co., Ltd., priority 2011, dated 2015).
Converted amounts (≈) assume the structure as drawn. Like-named read-outs stand apart in the source and are kept apart here.

Tests used:
S. aureus = assay: In vitro antibacterial activity (MIC), S. aureus; format: cell-based, Staphylococcus Aureus; conditions: for MIC: S. aureus (12 strains)
Method: Strains: strain ATCC25923 is available from the American Type Culture Collection, and is used as a standard strain of Staphylococcus Aureus;
Liquid medium: MH bouillon culture medium, a product of BD Company, United States of American;
Tested Compounds: compounds 12a, 13 and 14 prepared according to the methods above, and Linezolid purchased from Pfizer.
(§1) The test strain was inoculated into the liquid medium and cultured at 37° C. for 16-18 h. The culture liquid and MH medium were put into two blank wells of a 96-well plate, respectively. Then, the absorptions thereof were measured by a Microplate reader. The difference between the absorption values of the culture liquid and MH medium is the adsorption of the bacteria. The concentration of the culture liquid can be calculated according to the formula of 1OD=50 million CFU/mL. The culture liquid was diluted with the MH bouillon culture medium to 5000 CFU/mL for further use.
(§2) Compounds 12a, 13 and 14 were dissolved in DMSO to 1 mg/mL, and then filtered with a 0.22 μm filter to obtain the compound solutions. And then they were gradually diluted to a desired concentration (10× final concentration) with the liquid medium, so as to obtain a series of dilutions. The final concentration grade of the dilutions of each tested compound consists of 14 concentrations, which includes: 0.03125 μg/mL, […], 0.125 μg/mL, 0.25 μg/mL, […], 1 μg/mL, 2 μg/mL, 4 μg/mL, 8 μg/mL, 16 μg/mL, 32 μg/mL, 64 μg/mL, 128 μg/mL and 256 μg/mL.
(§3) 10 μL of each of the compound dilutions above was added into a well of a 96-well plate. 90 μL of the culture liquid (5000 CFU/mL) was added into each of the wells, respectively, mixed with the dilutions to render the tested compound concentration to the final concentration. The resulted mixture was incubated at 37° C. for 16-18 h, and then the OD630 thereof was measured. A culture liquid free of the tested compounds is used as a blank control, and three parallel tests with the same concentration of each compound were performed. The minimum inhibitory concentration (MIC) of each compound on the standard strain of Staphylococcus Aureus and other test strains was determined. Specifically, among the culture liquid contained in the wells of the micro-plate, the first three lowest concentrations under which growth of the test strains could be observed were chose for further evaluation of the MIC. A culture liquid free of tested compounds was used as a blank control. Each of the culture liquids was homogenized independently, and then was diluted with a sterile saline. Each of the diluted culture liquids was plated onto a MH bouillon plate and incubated at 37° C. for 20 h in incubator. After the incubation, the number of the colonies on each plate was counted. As compared with the blank control group, the lowest concentration of each of the test compound groups, at which 80% reduction in the colony number of the strains was achieved, was recorded as the MIC.

S. pneumoniae = assay: In vitro antibacterial activity (MIC), S. pneumoniae; format: cell-based; conditions: S. pneumoniae (10 strains)
Method: as §1, §2, §3

[1] = tested on: Enterococcus faecium-resistant vancomycin; assay: MIC against clinically isolated strains, vancomycin resistant Enterococcus faecium; format: cell-based; conditions: Enterococcus faecium-resistant vancomycin (12 strains)
Description: Standard strains, including Staphylococcus aureus ATCC29213, S. pneumoniae ATCC49619, E. faecalis ATCC29212, are all available from the American Type Culture Collection.
Clinically isolated strains: There are total 120 clinical strains of gram-positive bacterium including: 37 strains of Staphylococcus aureus (consisting of 14 strains of methicillin sensitive Staphylococcus aureus MSSA and 23 strains of methicillin resistant Staphylococcus aureus MRSA); 27 strains of Streptococcus pneumoniae (consisting of 13 strains of penicillin sensitive Streptococcus pneumoniae PSSP and 14 strains of penicillin insensitive or resistant Streptococcus pneumoniae PISP+PRSP); 15 strains of Streptococcus pyogenes; 17 strains of Streptococcus agalactiae; 24 stains of Enterococcus faecium (consisting of 12 strains of vancomycin sensitive Enterococcus faecium and 12 strains of vancomycin resistant Enterococcus faecium).
(2) Tested compounds: Compound 13f was prepared by the methods above, with potency of over 98%; Linezolid was purchased from Pfizer, with potency of 100%.
Staphylococcus and Enterococcus faecium were incubated in Mueller-Hinton agar medium (MHA medium) at 35° C. for 16-20 h; S. pneumoniae was incubated in Cation-Adjusted Mueller-Hinton Broth medium (CAMHB medium) supplemented with 2.5-5.5% (v/v) lysed horse blood (LHB) at 35° C. for 20-24 h; and Streptococcus were incubated in sheep blood-containing medium (prepared by addition of 5% defibrinated sheep blood into MHA media) at 35° C. for 20-24 h in 5% CO2 environment (CO2 incubator). Before test of the compound activity, each stock of the bacteria strains was activated and colonized in the following manner: the stock was transferred and cultured in a liquid culture medium, the culture liquid was smeared onto an agar plate with an inoculating loop to obtain bacterial colonies on the plate after incubation, and then a colony of the bacteria was chose to be suspended into the liquid culture medium for performing the test of compound activity. As a result, fresh bacteria cells were applied to the test. The standard strains were used as sensitive bacterium to control the quality of the experiments, and a plate or tube containing no antibacterial compounds is used as a blank control for the growth of test strains.
The minimal inhibitory concentration (MIC) of the test compounds on the strains of Streptococcus pneumoniae was determined by a standard broth macrodilution method, while the MIC of the test compounds on the other bacteria stains was determined by standard agar double dilution methods. The concentration of the test compounds was in the range of 32 mg/L-0.016 mg/L. The bacterial suspensions to be tested were inoculated by a multipoint inoculator, and the inoculation amount at each point is 10^4 CFU. The MIC of the test compound to each strain of the bacteria was determined.

L-02 = assay: Cytotoxicity experiment (MTT), L-02; format: cell-based; conditions: L-02 normal cells
Method: (1) Inoculating cells: Experimental cells in the growth of logarithmic phase were collected and suspended. The cell concentration of the suspension was adjusted so that they could be inoculated into the wells of 96-well micro plate at a density between 10^3-10^4 cells per well (200 μl per well). (2) Culturing cells: The cells were cultured at normal conditions for 3 days and then exposed to 50 uM compounds for test. (3) Coloring reaction: At 24 h, 48 h and 72 h after the cells being exposed to the compounds for test, 200 μl culture medium containing 20 μl MTT solution (5 mg/ml) was added into each well, and the well was further incubated at 37° C. for 2 hours to terminate the incubation. After the incubation, the supernatants were removed from the wells. In the event there were suspended cells in the wells, centrifugation should be performed before removal of supernatant from the wells. After the removal, 150 μl DMSO was added to each well and mixed thoroughly by agitation for 10 mins to fully dissolve crystals. (4) Ascertainment of colorimetry: The absorbance value at 490 nm of each well was determined by Enzyme-linked immunosorbent Monitor. The growth curve of the experimental cells was plotted by taking time as x-coordinate and absorbance value as y-coordinate. In addition, an inhibition ratio could be calculated in accordance with the following formula: Inhibition ratio=(absorbance value of control group-absorbance value of administering group)/absorbance value of control group×100%.

SMILES	MIC (S. aureus; Staphylococcus aureus, read-out: MIC)	activity ranking among test compounds (S. aureus; Table 2: S. aureus, S. pneumoniae, S. agalactiae and E. faecalis)	MIC (S. pneumoniae; Streptococcus pneumoniae, read-out: MIC)	MICmode [1]	MICrange [1]	cytotoxicity at 50 µM (L-02; Homo sapiens, L02, 48 h, read-out: Inhibition ratio)	MIC (S. aureus)	MIC (S. pneumoniae)	MIC50 [1]	MIC90 [1]	Inhibition ratio (L-02; 50 uM, 48 h)
CC(=O)NC[C@H]1CN(c2ccc(-n3cc(-c4ccccn4)cn3)c(F)c2)C(=O)O1 [Compound 13f, (S)-N-((3-(3-fluoro-4-(4-(pyridin-2-yl)-1H-pyrazol-1-yl)phenyl)-2-oxooxazolidin-5-yl)methyl)acetamide]	0.25 to 2 µg/mL (≈ 0.632 to 5.06 µM)	most optimum activity	0.25 to 1 µg/mL (≈ 0.632 to 2.53 µM)	1 µg/L	1 to 2 µg/L	2.74%	–	–	–	–	–
CC(=O)NC[C@H]1CN(c2ccc(N3CCOCC3)c(F)c2)C(=O)O1 [Linezolid, reference compound]	–	–	–	1 µg/L	1 to 2 µg/L	–	4 to 32 µg/mL	2 to 32 µg/mL	0.001 µg/mL (≈ 0.00296 µM)	0.001 µg/mL (≈ 0.00296 µM)	>50%
